Experiment [1] relates to rat vaginal Collagen I, Collagen III, Collagen V protein. Nature of the experiment: Immunofluorescence of vaginal collagen protein expression after 2 weeks vaginal suppositories. In kind it is in vivo. The note with it: OVX rats, vaginal suppositories 2 weeks, mean±SD; for ratio of vaginal Collagen I to Collagen III protein expression: placebo 1.16±0.2; for ratio of vaginal Collagen I to Collagen V protein expression: placebo 1.28±0.3. As for the experimental part: Ten to 12-weeks old female ovariectomized (OVX) Sprague-Dawley rats were utilized for the experiments. The animals were acclimatized to the environmental conditions before starting the experiment. The animals were housed individually and were allowed free access to water and rodent food. […] The suppositories were prepared according to the fusion method, using a polypeg suppository base ([…]., USA). […] Using a microwave, the suppository base was melted in a small beaker for 3 min and then transferred and kept into a water bath at a temperature of 55° C. The proper amount of above reagent was added to the liquefied base and meticulously crushed with a smooth rounded-end glass rod for about 20 min to make the solution to be even and clear. A pipette tip was used to suck some amount of solution and push it into a plastic tube with a diameter of 3.5 mm, and the tube was immediately left on the flat surface of an ice bucket. The suppository turned to white in color when it was solid. The moulded suppository was then pushed out of the tube using a round rod. […] After 30 min of cooling at room temperature, the suppositories were stored at 4° C. in a closed chamber until use. They were left to reach room temperature before use. The day after the last treatment the rats were overnight fasted and then sacrificed. Macroscopic measurement (genital hiatus, vaginal length) were taken and the vagina was dissected out carefully to avoid any injury to the vagina. The mid section of the vagina was utilized for histology (H and E stain, Masson's trichrome stain) and immunofluorescence and the rest of the vagina was used for RNA extraction and RT-PCR. Samples were incubated with three different antibodies, collagen I, III and anti-actin or collagen I and V and anti-actin. Frozen tissues samples were cut into sections of 6 μm and fixed for 10 min with acetone, followed by five washes of phosphate-buffered saline (PBS). […] After that, sections were incubated with the secondary antibody for one hour in the dark, at room temperature, followed by five washes of PBS. […] Alexa Fluor 405 Goat Anti-Mouse IgG (1:400) (Invitrogen); Cy3-AffiniPure Goat Anti-Mouse IgM (1:400) (Jackson ImmunoResearch Laboratories, West Grove, Pa.); Alexa Fluor 647 (1;200) phalloidin (Invitrogen). […] Four images were obtained per section. Images were capture with an Orca II-ERG 12 bitt CCD camera in a Zeiss Apotome microscope with a 20× objective. The data was analyzed using Matamorph version 7.7.4 software. Results are represented as mean pixel intensity ratios per square area.

Experiment [2] relates to ovariectomized (OVX) Sprague-Dawley rats. Nature of the experiment: Macroscopic measurements (genital hiatus, vaginal length) after 2 weeks vaginal suppositories. It counts as in vivo, rat. The note with it: vaginal suppositories 2 weeks (20 μM zinc sulfate, 10 nM GW501516, 0.01% estradiol), mean±SD; for genital hiatus (distance between the external urethral meatus and the mid anus): placebo 12.6±1.1; for vaginal length: placebo 14.1±1.1. As for the experimental part: Ten to 12-weeks old female ovariectomized (OVX) Sprague-Dawley rats were utilized for the experiments. The animals were acclimatized to the environmental conditions before starting the experiment. The animals were housed individually and were allowed free access to water and rodent food. […] The suppositories were prepared according to the fusion method, using a polypeg suppository base ([…]., USA). […] Using a microwave, the suppository base was melted in a small beaker for 3 min and then transferred and kept into a water bath at a temperature of 55° C. The proper amount of above reagent was added to the liquefied base and meticulously crushed with a smooth rounded-end glass rod for about 20 min to make the solution to be even and clear. A pipette tip was used to suck some amount of solution and push it into a plastic tube with a diameter of 3.5 mm, and the tube was immediately left on the flat surface of an ice bucket. The suppository turned to white in color when it was solid. The moulded suppository was then pushed out of the tube using a round rod. […] After 30 min of cooling at room temperature, the suppositories were stored at 4° C. in a closed chamber until use. They were left to reach room temperature before use. The day after the last treatment the rats were overnight fasted and then sacrificed. Macroscopic measurement (genital hiatus, vaginal length) were taken and the vagina was dissected out carefully to avoid any injury to the vagina. The mid section of the vagina was utilized for histology (H and E stain, Masson's trichrome stain) and immunofluorescence and the rest of the vagina was used for RNA extraction and RT-PCR.

These results are taken from patent US9375450B2, “Vaginal tissue rejuvenation compositions and methods” (priority 2011, dated 2016).

For `Cc1cc(SCc2sc(-c3ccc(C(F)(F)F)cc3)nc2C)ccc1OCC(=O)O` [GW501516, 2-[2-methyl-4-([4-methyl-2-[4-(trifluoromethyl)phenyl)-1,3-thiazol-5-yl]methylsulfanyl]phenoxy]acetic acid], in experiment [1], the “ratio of vaginal Collagen I to Collagen III protein expression” value is 1.20±0.1 relative units and the “ratio of vaginal Collagen I to Collagen V protein expression” value stood at 1.20±0.4 relative units. Besides, in experiment [2], the “genital hiatus (distance between the external urethral meatus and the mid anus)” value is on record as 14.7±1.1 mm; the vaginal length is on record as 15.5±1.0 mm.
As for `O.O.O.O.O.O.O.O=S(=O)([O-])[O-].[Zn+2]` [zinc sulfate, zinc sulfate heptahydrate], in experiment [1], the “ratio of vaginal Collagen I to Collagen III protein expression” value stood at 1.37±0.1 relative units and the “ratio of vaginal Collagen I to Collagen V protein expression” value is reported as 1.50±0.4 relative units. In addition, in experiment [2], the “genital hiatus (distance between the external urethral meatus and the mid anus)” value is recorded as 14.5±2.5 mm; the vaginal length turned out to be 15.6±4.0 mm.
